# Paper PMC9909315, “SY-707, an ALK/FAK/IGF1R inhibitor, suppresses growth and metastasis of breast cancer cells” (Acta Biochimica et Biophysica Sinica, 2022)
# Legend:
# MCF-7 cells [1] = test: Cell cycle analysis (PI, flow cytometry); format: cell-based; details: MCF-7, 24 h, dose-dependent; decrease of S phase
# Description: (§1) MCF-7 cells were treated with 0.1% DMSO (control) or with SY-707 solution at indicated concentrations for 24 h at 37°C, then the cells were harvested by centrifugation at 350 g and washed twice with PBS. Cell apoptosis was determined using the PE Annexin V Apoptosis Detection kit (BD Biosciences, San Jose, USA) following the manufacture’s guides. Breifly, cells were resuspended with 100 μL of binding buffer containing Annexin V and 7-AAD. After 15 min of incubation at room temperature in the dark, 400 μL of binding buffer was added to the mixture and the cells were analyzed with a Guava flow cytometer (Millipore). Cell cycle arrest was evaluated by incorporation of propidium (PI; Sigma-Aldrich, St Louis, USA) into the permeablized cells. After being treated with DMSO or compounds for 24 h, cells were harvested, washed twice with cold PBS, fixed with ice-cold 70% ethanol, followed by a secondary staining step with staining buffer (0.25 mg/mL RNase, 0.025 mg/mL PI, in PBS) for 1 h at 37°C. Compound regulation of cell-cycle was analyzed using the Guava flow cytometer. Data were analyzed with FlowJo software.
# T47D cells [2] = test: Cell adhesion assay; format: cell-based; details: 24 h pretreatment, dose-dependent
# Description: (§2) MCF-7 and T47D cells were plated in 6-well plates and pretreated with different concentrations of PF-562271 or SY-707 for 24 h, and then trypsinized, washed and resuspended in culture medium. Cells were added into each well and incubated for 6 h. Non-adherent cells were collected by washing with PBS and counted.
# MCF-7 cells [3] = test: Cell adhesion assay; format: cell-based; details: MCF-7, 24 h pretreatment, dose-dependent
# Description: as §2
# MCF-7 cells [4] = test: PE Annexin V/7-AAD apoptosis flow cytometry; format: cell-based; details: MCF-7, 0.01, 0.1 and 1 μM, 24 h
# Description: as §1
# T47D xenograft = test: T47D tumor xenograft study; format: in vivo, nude mice
# Description: Due to the strong cell growth inhibition potency of SY-707, we firstly evaluate its in vivo anti-cancer activity in T47D xenograft model mice. In this model, mice were orally administered twice a day with vehicle or SY-707 at dose of 100, 50 or 25 mg/kg after tumor size reached 150–300 mm ^3.
# Next, we evaluated the combination effects of SY-707 and paclitaxel (an approved drug for breast cancer therapy) in T47D xenograft model. Mice bearing T47D breast cancer were divided randomly into 4 groups: vehicle, SY-707 (100 mg/kg/day), paclitaxel (10 mg/kg/week), and SY-707 plus paclitaxel groups.
# [5] = system: phosphorylation of FAK at Tyr397; test: Western blot of FAK phosphorylation in T47D cells; format: cell-based; details: 1 h treatment
# Description: (§3) Equal amounts of cell lysates were loaded onto 10% SDS-PAGE gel and separated by electrophoresis. Separated proteins were then electro-transferred onto polyvinylidene fluoride (PVDF) membranes (Millipore, Bedford, USA). After being blocked with Tris-buffered saline containing 0.1% Tween-20 (TBST) and 5% bovine serum albumin (BSA), the membranes were incubated with primary antibodies at room temperature for 2 hours or at 4°C, then washed with TBST, followed by treatment with horseradish peroxidase (HRP)-conjugated goat anti-rabbit IgG secondary antibody at room temperature for another 1 h. The targeted protein bands were visualized using an enhanced chemiluminescence (ECL) plus system (Thermo Fisher Scientific). Primary antibodies against phospho-FAK (3283, 1:1000 dilution), phospho-ERK (4377, 1:2000 dilution), phospho-AKT (4060, 1:2000 dilution), FAK (3285, 1:1000 dilution), AKT (6703, 1:1000 dilution) and β-Actin (5125, 1:10,0000 dilution) were purchased from Cell Signaling Technology (Beverly, USA) and the HRP-conjugated goat anti-rabbit IgG (ZDR-5306, 1:10,000 dilution) was purchased from Jackson (West Grove, USA ).
# (§4) Cells were cultured in 6-well plates and treated with the indicated concentrations of SY-707 for 1 h before stimulation with or without 100 ng/mL IGF1 for 10 min. Control cells received the drug vehicle with 0.1% DMSO. […]
# [6] = system: phosphorylation of FAK at Tyr397; test: Western blot of FAK phosphorylation in MCF-7 cells; format: cell-based; details: MCF-7, 1 h treatment
# Description: as §3, §4
# Tissue distribution = format: in vivo; details: SD rats, oral 15 mg/kg; except the uterus and spleen
# Description: In addition, SY-707 also had good clearance parameters and oral bioavailability in these two species.
# Supplementary Figure S1. The tissue distribution profile of SY-707 Tissue distribution of SY-707 in SD rats was measured after oral administration of SY-707 (15 mg/kg).
# T47D cells [7] = test: Western blot for cleaved PARP; format: cell-based; details: various concentrations, 24 h
# Description: as §3
# (§5) Cells were cultured and treated with SY-707 under the indicated concentrations (0.01, 0.1 and 1 μM respectively) for 24 h, then stained with Annexin-V and 7-AAD for cell apoptosis analysis by Guava flow cytometry.
# MCF-7 cells [8] = test: Western blot for cleaved PARP; format: cell-based; details: MCF-7, various concentrations, 24 h
# Description: as §3, §5
smiles,measurement,setting,value
"COc1cc(N2CCC(N3CCN(C)CC3)CC2)ccc1Nc1nc2c(c(Nc3ccccc3S(=O)(=O)NC(C)C)n1)CCN2 [SY-707, N-isopropyl-2-((2-((2-methoxy-4-(4-(4-methylpiperazin-1-yl)piperidin-1-yl)phenyl)amino)-6,7-dihydro-5H-pyrrolo[2,3-d]pyrimidin-4-yl)amino)benzenesulfonamide]",cell cycle arrest,MCF-7 cells [1],pronounced G2/M phase arrest
same,cell adhesion,T47D cells [2],characteristically repressed
same,cell adhesion,MCF-7 cells [3],characteristically repressed
same,Late apoptosis,MCF-7 cells [4],dose-dependently induced
same,tumor growth inhibition rate,"T47D xenograft; 25 mg/kg orally twice a day, 21 days, P<0.05",31%
same,tumor growth inhibition rate,"T47D xenograft; 50 mg/kg orally twice a day, 21 days, P<0.05",39%
same,tumor growth inhibition rate,"T47D xenograft; 100 mg/kg orally twice a day, 21 days, P<0.01",61%
same,tumor growth inhibition rate,"T47D xenograft; combination study, SY-707 100 mg/kg/day alone, 24 days",14%
same,phosphorylation of FAK at Tyr397,[5],dose-dependently suppressed
same,phosphorylation of FAK at Tyr397,[6],dose-dependently suppressed
same,distribution in rat tissues (AUC 0–24 h) relative to plasma,Tissue distribution,other organs had lower level of SY-707 than the plasma
same,cleaved PARP,T47D cells [7],markedly detected
same,cleaved PARP,MCF-7 cells [8],markedly detected
